Converted amounts (≈) assume the structure as drawn. Like-named read-outs stand apart in the source and are kept apart here.

Series [1] concerns the target T1, FucO (Escherichia coli, UniProt P0A9S1).
T1 construct: The FucO coding region was cloned into pET15b to produce pLOI4322; made in house; host or cells: E. coli BL21(λDE3) carrying pLOI4322
T1 sequence (P0A9S1 1-382): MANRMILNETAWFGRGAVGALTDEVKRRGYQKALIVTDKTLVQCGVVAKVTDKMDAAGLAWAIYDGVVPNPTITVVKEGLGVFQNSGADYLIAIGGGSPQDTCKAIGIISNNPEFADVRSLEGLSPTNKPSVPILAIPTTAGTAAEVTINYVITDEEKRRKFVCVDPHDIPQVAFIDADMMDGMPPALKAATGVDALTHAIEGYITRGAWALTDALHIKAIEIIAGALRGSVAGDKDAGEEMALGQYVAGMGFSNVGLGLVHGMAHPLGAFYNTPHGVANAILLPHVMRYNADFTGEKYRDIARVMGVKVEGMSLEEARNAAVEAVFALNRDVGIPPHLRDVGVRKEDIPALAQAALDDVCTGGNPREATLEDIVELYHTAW
The series is described as follows: NADH-/NADPH-dependent furan reduction by purified his-tagged FucO. The series is classed as biochemical. The following applies: for NADPH-dependent reductase activity: purified enzyme, NADPH as cofactor. How it is done: (§1) Cultures were grown overnight to a cell density of approximately 0.66 mg dew ml^−1 (37° C.) in closed tubes containing 20 ml AM1 (50 g liter^−1 xylose, 0.1 mM IPTG and 12.5 mg liter^−1 ampicillin). Cells were harvested by centrifugation (7,000 g for 5 min, 4° C.), washed twice with 10 ml of cold sodium phosphate buffer (50 mM pH 7.0), resuspended to a cell density of 4.4 mg dew ml^−1, and disrupted in buffer containing 1 mM dithiothreitol using a Fastprep-24 (MP Biomedicals, Solon, Ohio). After clarification at 13,000 g (10 min, 4° C.), protein concentration was determined using a BCA™ Protein Assay Kit (Thermo Scientific, Rockford, Ill.). Furfural-dependent reduction was measured using NADH and NADPH by monitoring the decrease in absorbance at 340 nm (extinction coefficient of NADH of 6,220 M^−1 cm^−1; extinction coefficient of NADPH of […]). Reaction mixtures contained 200 mM phosphate buffer (pH 7.0), 10 mM furfural, and 0.2 mM NADH or NADPH. NADH-dependent and NADPH-dependent reduction of 5-HMF (10 mM) was measured in a similar fashion.
(§2) For the purification of his-tagged FucO, BL21(pLOI4322) was grown in Luria broth at 37° C. When the culture density reached 0.35 g dew liter^−1, IPTG (0.1 mM) was added to induce overexpression. After incubation for 4 h, cells were harvested (7,000 g for 5 min, 4° C.), washed once with 10 mM Tris-HCl (pH 7.1), and lysed using a French pressure cell. After clarification at 30,000 g (1 h, 4° C.), crude extracts were passed through a 0.22 μm polyvinylidene fluoride (PVDF) filter, and further purified using a 1-ml HiTrap™ nickel column (GE Healthcare, Piscataway, N.J.). Purified enzyme was dialyzed in 100 mM phosphate buffer using a Thermo Slide-A-Lyzer and quantified using the BCA™ Protein Assay Kit (Thermo Scientific, Rockford, Ill.).

In series [2] the target is T1, FucO. The following applies: native substrate, reference (6); cited from earlier work.
A further series deals with YqhD (Escherichia coli, UniProt Q46856). The following applies: cited from earlier work.
A further series concerns LY180(pTrc99A). The series is described as follows: Furfural toxicity in tube cultures, vector control. The class given is cell-based. The following applies: Escherichia coli, 48 h, read-out: minimum inhibitory concentration. How it is done: (§3) Furfural toxicity was measured in tube cultures (13 mm by 100 mm) containing 4 ml of AM1 medium with 50 g xylose, 12.5 mg liter^−1 ampicillin, furfural, and other supplements as indicated (28, 29). Cultures were inoculated to an initial density of […] (0.1 mM) was included for fucO induction. Cell mass was measured at 550 nm after incubation for 48 h (37° C.).

Another series concerns LY180(pLOI4319). Nature of the series: Furfural toxicity in tube cultures, IPTG-induced fucO. The class given is cell-based. The following applies: Escherichia coli; AM1 medium, xylose, 48 h, 37° C., 0.1 mM IPTG-induced fucO; read-out: minimum inhibitory concentration. How it is done:
as §3

Substrate in series [3]: O=Cc1ccco1
The series is described as follows: NADH-/NADPH-dependent furan reduction by purified his-tagged FucO. The class given is biochemical, Escherichia coli. The following applies: other: substrate of purified his-tagged FucO, NADH-specific reduction; 37.0 °C. How it is done: as §1, §2

Substrate in series [4]: O=Cc1ccc(CO)o1
Described as above. The class given is biochemical, Escherichia coli. The following applies: other: substrate of purified his-tagged FucO, NADH-specific reduction; 37.0 °C. On the procedure: as §1, §2

Sequence of YqhD (Q46856 whole entry): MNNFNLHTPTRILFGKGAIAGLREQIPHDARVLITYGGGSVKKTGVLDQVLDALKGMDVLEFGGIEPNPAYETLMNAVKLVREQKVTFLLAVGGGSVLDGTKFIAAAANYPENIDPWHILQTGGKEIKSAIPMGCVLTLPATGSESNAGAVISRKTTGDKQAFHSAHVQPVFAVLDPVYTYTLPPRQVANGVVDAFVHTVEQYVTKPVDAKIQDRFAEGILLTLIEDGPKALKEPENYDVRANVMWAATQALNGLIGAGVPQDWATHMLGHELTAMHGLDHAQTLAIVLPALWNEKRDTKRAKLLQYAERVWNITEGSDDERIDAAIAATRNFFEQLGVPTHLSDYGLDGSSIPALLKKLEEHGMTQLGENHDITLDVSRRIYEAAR

On to `O=Cc1ccc(CO)o1` [5-HMF, 5-hydroxymethylfurfural], for which, at FucO [1], the NADPH-dependent reductase activity entry is “No NADPH-dependent furfural or 5-HMF reductase activity”.
On to `C[C@H](O)C=O` [L-lactaldehyde], for which, at FucO [2], the Km is 0.035 mM and the Vmax was 20 μmol min^−1 mg protein^−1.
`NC(=O)C1=CN([C@@H]2O[C@H](COP(=O)(O)OP(=O)(O)OC[C@H]3O[C@@H](n4cnc5c(N)ncnc54)[C@H](OP(=O)(O)O)[C@@H]3O)[C@@H](O)[C@H]2O)C=CC1` [NADPH]: the Km on YqhD (read-out: Km for NADPH) was 0.008 mM.
`O=Cc1ccco1` [furfural]: the “Vmax relative to that for L-lactaldehyde” value at FucO [1] (FucO) came to 10%. Besides, the NADPH-dependent reductase activity entry at FucO [1] was “No NADPH-dependent furfural or 5-HMF reductase activity”. The Km at YqhD (reference (29), read-out: Km for furfural) was 9 mM. The results for the MIC in the series on LY180(pTrc99A) and in the series on LY180(pLOI4319) were 10 mM (≈ 961 µg/mL) and 15 mM (≈ 1440 µg/mL), respectively.

B1: FucO (Escherichia coli K-12) (protein)
chain: MANRMILNETAWFGRGAVGALTDEVKRRGYQKALIVTDKTLVQCGVVAKVTDKMDAAGLAWAIYDGVVPNPTITVVKEGLGVFQNSGADYLIAIGGGSPQDTCKAIGIISNNPEFADVRSLEGLSPTNKPSVPILAIPTTAGTAAEVTINYVITDEEKRRKFVCVDPHDIPQVAFIDADMMDGMPPALKAATGVDALTHAIEGYITRGAWALTDALHIKAIEIIAGALRGSVAGDKDAGEEMALGQYVAGMGFSNVGLGLVHGMAHPLGAFYNTPHGVANAILLPHVMRYNADFTGEKYRDIARVMGVKVEGMSLEEARNAAVEAVFALNRDVGIPPHLRDVGVRKEDIPALAQAALDDVCTGGNPREATLEDIVELYHTAW
notes: The FucO coding region was cloned into pET15b to produce pLOI4322; made in house; host or cells: E. coli BL21(λDE3) carrying pLOI4322
Turning to B1, in series [3], the Km turned out to be 0.4 ± 0.2 mM and the Vmax is reported as 1.9±0.4 mmol min^−1 mg protein^−1. Besides, in series [4], the Km was found to be 0.7 ± 0.3 mM and the Vmax was 0.30±0.05 mmol min^−1 mg protein^−1.

Usually Km stands for the substrate concentration at which the rate is half of its maximum.

(Values after patent US9157102B2, “Over-expression of NADH-dependent oxidoreductase (fucO) for increasing furfural or 5-hydroxymethylfurfural tolerance” (UNIVERSITY OF FLORIDA RESEARCH FOUNDATION, INCORPORATED, priority 2011, dated 2015).)
